Experimental data: US6593357B1, “Pyrazole compositions useful as inhibitors of ERK” (Vertex Pharmaceuticals Incorporated, priority 2000, dated 2003)

How the values were obtained:
KDR = KDR (Homo sapiens, UniProt P35968); assay: KDR inhibition, standard coupled enzyme assay; type: biochemical; conditions: read-out: percent inhibition of KDR
Method: Compounds were screened for their ability to inhibit KDR using a standard coupled enzyme assay (Fox et al., Protein Sci., (1998) 7, 2249). Assays were carried out in a mixture of 200 mM HEPES 7.5, 10 mM MgCl2, 25 mM NaCl , 1 mM DTT and 1.5% DMSO. Final substrate concentrations in the assay were 300 μM ATP (Sigma Chemicals) and 10 μM poly E4Y (Sigma). Assays were carried out at 37° C. and 30 nM KDR. Final concentrations of the components of the coupled enzyme system were 2.5 mM phosphoenolpyruvate, 200 μM NADH, 30 μg/ML pyruvate kinase and 10 μg/ml lactate dehydrogenase.
An assay stock buffer solution was prepared containing all of the reagents listed above, with the exception of ATP and the test compound of interest. 177 μl of the stock solution was placed in a 96 well plate followed by addition of 3 μl of 2 mM DMSO stock containing the test compound (final compound concentration 30 μM). The plate was preincubated for about 10 minutes at 37° C. and the reaction initiated by addition of 20 μl of ATP (final concentration 300 μM). Rates of reaction were obtained using a Molecular Devices plate reader (Sunnyvale, Calif.) over a 5 minute read time at 37° C.

[1] = system: Colon cancer cells (HT-29 cell line); assay: ERK inhibition cell proliferation assay (3H-thymidine uptake); type: cell-based; conditions: Homo sapiens, 3 days
Method: Compounds were assayed for the inhibition of ERK2 by a cell proliferation assay. In this assay, a complete media was prepared by adding 10% fetal bovine serum and penicillin/streptomycin solution to RPMI 1640 medium (JRH Biosciences). Colon cancer cells (HT-29 cell line) were added to each of 84 wells of a 96 well plate at a seeding density of 10,000 cells/well/150 μL. The cells were allowed to attach to the plate by incubating at 37° C. for 2 hours. A solution of test compound was prepared in complete media by serial dilution to obtain the following concentrations: 20 μM, 6.7 μM, 2.2 μM, 0.74 μM, 0.25 μM, and 0.08 μM. The test compound solution (50 μL) was added to each of 72 cell-containing wells. To the 12 remaining cell-containing wells, only complete media […] was added to form a control group in order to measure maximal proliferation. To the remaining 12 empty wells, complete media was added to form a vehicle control group in order to measure background. The plates were incubated at 37° C. for 3 days. A stock solution of ^3H-thymidine (1 mCi/mL, New England Nuclear, Boston, Mass.) was diluted to 20 μCi/mL in RPMI medium then 20 μL of this solution was added to each well. The plates were further incubated at 37° C. for 8 hours then harvested and analyzed for ^3H-thymidine uptake using a liquid scintillation counter.

ERK2 = ERK2 (Homo sapiens, UniProt P28482); assay: ERK2 inhibition, spectrophotometric coupled-enzyme assay; type: biochemical; conditions: activated ERK2 10 nM, 65 μM ATP, 30° C., pH 7.5; read-out: ERK2 Inhibitory Activity (Ki class)
Sequence of ERK2 (P28482 whole entry): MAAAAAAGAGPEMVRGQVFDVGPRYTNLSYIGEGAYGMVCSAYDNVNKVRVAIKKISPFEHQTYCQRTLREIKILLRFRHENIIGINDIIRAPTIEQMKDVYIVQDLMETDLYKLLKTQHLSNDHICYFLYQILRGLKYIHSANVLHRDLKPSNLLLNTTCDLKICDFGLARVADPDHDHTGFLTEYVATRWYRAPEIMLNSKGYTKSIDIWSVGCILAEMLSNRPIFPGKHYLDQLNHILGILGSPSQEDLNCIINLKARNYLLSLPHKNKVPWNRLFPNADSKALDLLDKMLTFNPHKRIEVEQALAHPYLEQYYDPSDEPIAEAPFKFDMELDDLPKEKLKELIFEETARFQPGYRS

Aurora2 = biological target: T1, Aurora2 (Homo sapiens, UniProt O14965); assay: Aurora inhibition, standard coupled enzyme assay; type: biochemical; conditions: 40 μM ATP, 30° C.; read-out: Aurora2 Inhibitory Activity (IC50 class)
T1 sequence (O14965 1-403): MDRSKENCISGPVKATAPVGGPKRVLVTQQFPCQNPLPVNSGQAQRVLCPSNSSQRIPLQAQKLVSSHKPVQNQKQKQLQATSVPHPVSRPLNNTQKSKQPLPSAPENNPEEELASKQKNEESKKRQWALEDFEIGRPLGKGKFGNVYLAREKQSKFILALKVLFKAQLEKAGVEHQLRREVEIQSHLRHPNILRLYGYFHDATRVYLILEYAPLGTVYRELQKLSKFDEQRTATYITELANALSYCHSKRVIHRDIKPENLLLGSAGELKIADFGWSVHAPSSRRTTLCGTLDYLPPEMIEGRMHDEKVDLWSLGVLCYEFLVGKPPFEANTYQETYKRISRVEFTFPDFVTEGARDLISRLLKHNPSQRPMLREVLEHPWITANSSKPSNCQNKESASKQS
Method: Compounds were screened in the following manner for their ability to inhibit Aurora using a standard coupled enzyme assay. To an assay stock buffer solution containing 0.1M HEPES 7.5, 10 mM MgCl2, 25 mM NaCl, 2.5 mM phosphoenolpyruvate, 300 μM NADH, 30 μg/mL pyruvate kinase, 10 μg/mL lactate dehydrogenase, 40 μM ATP, and 800 μM peptide (LRRASLG, American Peptide, Sunnyvale, Calif.) was added a 30 μM solution of the compound in DMSO and the resulting mixture incubated at 30° C. for 10 min. The reaction was initiated by the addition of 10 μL of 70 nM Aurora and 1 mM DTT. The rates of reaction were obtained by monitoring absorbance at 340 nm over a 5 minute read time at 30° C. using a BioRad Ultramark plate reader (Hercules, Calif.). The IC50 was determined from the rate data as a function of inhibitor concentration.
The compound numbers correspond to the compound numbers in Table 1.

AKT = AKT inhibition, standard coupled enzyme assay; type: biochemical
Method: Compounds were screened for their ability to inhibit AKT using a standard coupled enzyme assay (Fox et al., Protein Sci., (1998) 7, 2249). Assays were carried out in a mixture of 100 mM HEPES 7.5, 10 mM MgCl2, 25 mM NaCl , 1 mM DTT and 1.5% DMSO. Final substrate concentrations in the assay were 170 μM ATP (Sigma Chemicals) and 200 μM peptide (RPRAATF, American Peptide, Sunnyvale, Calif.). Assays were carried out at 30° C. and 45 nM AKT. Final concentrations of the components of the coupled enzyme system were 2.5 mM phosphoenolpyruvate, 300 μM NADH, 30 μg/ML pyruvate kinase and 10 μg/ml lactate dehydrogenase.
An assay stock buffer solution was prepared containing all of the reagents listed above, with the exception of AKT, DTT, and the test compound of interest. 56 μl of the stock solution was placed in a 384 well plate followed by addition of 1 μl of 2 mM DMSO stock containing the test compound (final compound concentration 30 μM). The plate was preincubated for about 10 minutes at 30° C. and the reaction initiated by addition of 10 μl of enzyme (final concentration 45 nM) and 1 mM DTT. Rates of reaction were obtained using a BioRad Ultramark plate reader (Hercules, Calif.) over a 5 minute read time at 30° C.

Sequence of KDR (P35968 20-1356, species assumed): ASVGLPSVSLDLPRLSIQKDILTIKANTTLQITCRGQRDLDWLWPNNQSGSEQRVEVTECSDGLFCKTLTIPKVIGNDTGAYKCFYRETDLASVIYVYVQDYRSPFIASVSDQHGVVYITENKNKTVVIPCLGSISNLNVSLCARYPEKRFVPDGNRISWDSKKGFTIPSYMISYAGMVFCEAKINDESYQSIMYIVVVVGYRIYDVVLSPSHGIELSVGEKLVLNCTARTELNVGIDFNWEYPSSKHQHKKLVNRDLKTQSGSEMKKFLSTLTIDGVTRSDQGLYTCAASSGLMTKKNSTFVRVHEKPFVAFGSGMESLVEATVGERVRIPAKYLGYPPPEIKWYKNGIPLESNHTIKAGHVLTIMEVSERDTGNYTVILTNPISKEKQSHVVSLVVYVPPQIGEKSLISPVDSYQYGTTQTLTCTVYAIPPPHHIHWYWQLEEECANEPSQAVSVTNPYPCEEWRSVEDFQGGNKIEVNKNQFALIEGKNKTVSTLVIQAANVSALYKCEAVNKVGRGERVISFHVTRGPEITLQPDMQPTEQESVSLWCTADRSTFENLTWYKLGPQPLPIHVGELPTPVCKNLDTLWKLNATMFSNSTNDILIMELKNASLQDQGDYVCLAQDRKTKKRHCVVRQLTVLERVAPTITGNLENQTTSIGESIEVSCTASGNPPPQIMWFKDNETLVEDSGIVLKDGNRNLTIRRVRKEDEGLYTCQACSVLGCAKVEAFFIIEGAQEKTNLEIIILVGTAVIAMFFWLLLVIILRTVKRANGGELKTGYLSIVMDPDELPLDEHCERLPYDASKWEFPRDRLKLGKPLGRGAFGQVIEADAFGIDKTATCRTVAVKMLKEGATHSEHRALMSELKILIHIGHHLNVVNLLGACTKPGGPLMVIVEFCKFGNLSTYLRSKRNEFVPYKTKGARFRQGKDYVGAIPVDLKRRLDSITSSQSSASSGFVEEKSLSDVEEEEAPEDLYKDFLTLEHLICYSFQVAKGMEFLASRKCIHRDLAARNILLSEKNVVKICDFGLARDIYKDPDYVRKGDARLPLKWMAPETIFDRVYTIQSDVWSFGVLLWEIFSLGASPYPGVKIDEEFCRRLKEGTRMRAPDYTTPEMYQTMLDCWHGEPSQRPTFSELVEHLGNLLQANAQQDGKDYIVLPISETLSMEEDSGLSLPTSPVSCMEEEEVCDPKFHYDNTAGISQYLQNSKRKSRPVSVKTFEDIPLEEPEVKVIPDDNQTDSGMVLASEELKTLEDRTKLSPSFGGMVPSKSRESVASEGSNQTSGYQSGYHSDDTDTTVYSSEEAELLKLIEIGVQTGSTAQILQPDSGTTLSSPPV

O=C(NCc1ccc2c(c1)CCO2)c1cc(-c2[nH]ncc2-c2cccc(Br)c2)c[nH]1 [II-43]
inhibition at 2 µM (KDR): > 40% | IC50 [1]: < 10000 nM | Ki (ERK2): < 1000 nM

O=C(NC(CO)c1ccccc1)c1cc(-c2[nH]ncc2-c2cccc(Br)c2)c[nH]1 (centres unmarked) [II-45]
IC50 [1]: < 10000 nM | Ki (ERK2): < 1000 nM

O=C(NCc1ccncc1)c1cc(-c2n[nH]cc2-c2cc(Cl)cc(Cl)c2)c[nH]1 [II-48]
inhibition at 2 µM (KDR): > 40% | IC50 [1]: < 10000 nM | IC50 (Aurora2): < 5000 nM | Ki (ERK2): < 1000 nM

O=C(NOCc1ccccc1)c1cc(-c2[nH]ncc2-c2cccc(F)c2)c[nH]1 [II-89]
IC50 (Aurora2): < 5000 nM | Ki (ERK2): < 1000 nM | inhibit AKT (AKT): inhibit AKT

NS(=O)(=O)c1ccc(CNC(=O)c2cc(-c3[nH]ncc3-c3cccc(Br)c3)c[nH]2)cc1 [II-94]
Ki (ERK2): < 1000 nM | inhibit AKT (AKT): inhibit AKT
